Experiments:
[1] = target: T1, Dihydrofolate reductase (Pneumocystis carinii, UniProt P16184)
T1 sequence (P16184 whole entry): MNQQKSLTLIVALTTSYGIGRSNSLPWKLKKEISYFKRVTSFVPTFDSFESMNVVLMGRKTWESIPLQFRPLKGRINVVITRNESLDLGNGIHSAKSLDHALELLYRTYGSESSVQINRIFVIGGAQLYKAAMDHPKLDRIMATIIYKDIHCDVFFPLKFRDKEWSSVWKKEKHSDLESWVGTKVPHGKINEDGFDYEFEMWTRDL
Description: The ability to inhibit Pneumocystis carinii Dihydrofolate reductase was tested

[2] = target: T2, Bifunctional dihydrofolate reductase-thymidylate synthase (Toxoplasma gondii, UniProt Q07422)
T2 sequence (Q07422 whole entry): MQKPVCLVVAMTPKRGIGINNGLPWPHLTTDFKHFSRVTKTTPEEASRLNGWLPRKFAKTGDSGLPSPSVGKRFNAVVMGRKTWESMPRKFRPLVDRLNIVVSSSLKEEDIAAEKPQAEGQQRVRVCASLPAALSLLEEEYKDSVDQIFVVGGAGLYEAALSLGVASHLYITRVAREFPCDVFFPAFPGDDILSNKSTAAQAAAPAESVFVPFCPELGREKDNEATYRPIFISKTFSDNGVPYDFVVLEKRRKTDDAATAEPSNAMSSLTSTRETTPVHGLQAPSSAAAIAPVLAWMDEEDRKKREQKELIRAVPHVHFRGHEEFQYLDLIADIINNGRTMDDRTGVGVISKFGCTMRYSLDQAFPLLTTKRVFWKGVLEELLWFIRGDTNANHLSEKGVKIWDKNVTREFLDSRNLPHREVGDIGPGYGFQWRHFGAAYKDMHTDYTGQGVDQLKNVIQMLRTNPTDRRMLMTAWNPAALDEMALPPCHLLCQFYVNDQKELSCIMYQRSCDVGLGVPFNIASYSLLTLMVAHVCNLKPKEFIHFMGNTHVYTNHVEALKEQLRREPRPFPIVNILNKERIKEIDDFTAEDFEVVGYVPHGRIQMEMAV
Description: The ability to inhibit Toxoplasma gondii Dihydrofolate reductase was tested

[3] = target: T3, Dihydrofolate reductase (Rattus norvegicus, UniProt Q920D2)
T3 sequence (Q920D2 whole entry): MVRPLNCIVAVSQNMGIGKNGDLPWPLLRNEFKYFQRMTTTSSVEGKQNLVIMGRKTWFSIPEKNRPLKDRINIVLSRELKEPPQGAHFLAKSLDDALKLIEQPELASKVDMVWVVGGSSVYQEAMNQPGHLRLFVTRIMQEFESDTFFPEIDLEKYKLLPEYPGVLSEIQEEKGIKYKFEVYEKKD
Description: The ability to inhibit rat liver Dihydrofolate reductase was tested

[4] = The ability to inhibit [3H]- uracil incorporation by Toxoplasma gondii in cultures of HEL cells was tested; assay type: functional, cell-based, Homo sapiens
[5] = tested on: SF-268; assay: Compound was tested for the growth inhibition of SF-268 CNS tumor cell line; assay type: functional, cell-based; details: Homo sapiens
[6] = tested on: KM12; assay: Compound was tested for the growth inhibition of KM12 colon tumor cell line; assay type: functional, cell-based; details: Homo sapiens
[7] = tested on: NCI-H226; assay: Compound was tested for the growth inhibition of NCI-H226 lung tumor cell line; assay type: functional, cell-based; details: Homo sapiens
[8] = tested on: NCI-H460; assay: Compound was tested for the growth inhibition of NCI-H460 lung tumor cell line; assay type: functional, cell-based; details: Homo sapiens
[9] = tested on: A498; assay: Compound was tested for the growth inhibition of A498 renal tumor cell line; assay type: functional, cell-based; details: Homo sapiens
[10] = tested on: HCT-116; assay: Compound was tested for the growth inhibition of HCT116 colon tumor cell line; assay type: functional, cell-based; details: Homo sapiens
[11] = tested on: BT-549; assay: Compound was tested for the growth inhibition of BT-549 breast carcinoma cell line; assay type: functional, cell-based; details: Homo sapiens
[12] = tested on: UACC-257; assay: Compound was tested for the growth inhibition of UACC-257 melanoma tumor cell line; assay type: functional, cell-based; details: Homo sapiens
[13] = tested on: EKVX; assay: Compound was tested for the growth inhibition of EKVX lung tumor cell line; assay type: functional, cell-based; details: Homo sapiens
[14] = tested on: 786-0; assay: Compound was tested for the growth inhibition of 786-0 renal tumor cell line; assay type: functional, cell-based; details: Homo sapiens
[15] = tested on: SN12C; assay: Compound was tested for the growth inhibition of SN12C renal tumor cell line; assay type: functional, cell-based; details: Homo sapiens
[16] = tested on: SW-620; assay: Compound was tested for the growth inhibition of SW-620 colon tumor cell line; assay type: functional, cell-based; details: Homo sapiens
[17] = tested on: MDA-N; assay: Compound was tested for the growth inhibition of MDA-N breast carcinoma cell line; assay type: functional, cell-based; details: Homo sapiens
[18] = tested on: COLO 205; assay: Compound was tested for the growth inhibition of COLO 205 colon tumor cell line; assay type: functional, cell-based; details: Homo sapiens
[19] = tested on: OVCAR-8; assay: Compound was tested for the growth inhibition of OVCAR-8 ovarian tumor cell line; assay type: functional, cell-based; details: Homo sapiens
[20] = tested on: LOX IMVI; assay: Compound was tested for the growth inhibition of LOX IMVI melanoma tumor cell line; assay type: functional, cell-based; details: Homo sapiens
[21] = tested on: T47D; assay: Compound was tested for the growth inhibition of T-47D breast tumor cell line; assay type: functional, cell-based; details: Homo sapiens
[22] = tested on: ACHN; assay: Compound was tested for the growth inhibition of ACHN renal tumor cell line; assay type: functional, cell-based; details: Homo sapiens
[23] = tested on: IGROV-1; assay: Compound was tested for the growth inhibition of IGROV1 ovarian tumor cell line; assay type: functional, cell-based; details: Homo sapiens
[24] = Ratio of the inhibitory concentrations against [3H]-uracil incorporation into nuclear DNA and Toxoplasma gondii (Tg) DHFR; IC50 ([3H]uracil incorporation)/IC50 (Tg); assay type: functional
[25] = tested on: A549; assay: Compound was tested for the growth inhibition of A549 lung tumor cell line; assay type: functional, cell-based; details: Homo sapiens
[26] = tested on: PC-3; assay: Compound was tested for the growth inhibition of PC3 prostate tumor cell line; assay type: functional, cell-based; details: Homo sapiens
[27] = tested on: SF-295; assay: Compound was tested for the growth inhibition of SF-295 CNS tumor cell line; assay type: functional, cell-based; details: Homo sapiens
[28] = tested on: SK-MEL-5; assay: Compound was tested for the growth inhibition of SK-MEL-5 melanoma tumor cell line; assay type: functional, cell-based; details: Homo sapiens
[29] = tested on: OVCAR-3; assay: Compound was tested for the growth inhibition of OVCAR-3 ovarian tumor cell line; assay type: functional, cell-based; details: Homo sapiens
[30] = tested on: SF-539; assay: Compound was tested for the growth inhibition of SF-539 CNS tumor cell line; assay type: functional, cell-based; details: Homo sapiens

## CC(C)(C)C1CCc2nc(N)nc(N)c2C1 (stereo not given)
[1]
  IC50: 0.18 µM
[2]
  IC50: 0.018 µM
[3]
  IC50: 0.065 µM

## COc1ccc(CC2CCc3nc(N)nc(N)c3C2)cc1 (stereo not given)
[1]
  IC50: 0.44 µM
[2]
  IC50: 0.05 µM
[3]
  IC50: 0.077 µM

## CCc1nc(N)nc(N)c1-c1ccc(Cl)cc1 [PYRIMETHAMINE]
[4]
  IC50: 0.67 µM

## Nc1nc(N)c2c(n1)CCC(Cc1ccc(Cl)c(Cl)c1)C2 (stereo not given)
[1]
  IC50: 15 µM
[2]
  IC50: 2.6 µM
[3]
  IC50: 7.3 µM

## Cc1ccccc1CC1CCc2nc(N)nc(N)c2C1 (stereo not given)
[1]
  IC50: 0.25 µM
[2]
  IC50: 0.023 µM
[3]
  IC50: 0.11 µM

## Nc1nc(N)c2c(n1)CCC(CC1CCCO1)C2 (stereo not given)
[1]
  IC50: 0.88 µM
[2]
  IC50: 0.04 µM
[3]
  IC50: 0.27 µM

## COc1cc(CN2CCc3nc(N)nc(N)c3C2)cc(OC)c1OC
[1]
  IC50: 6.9 µM
[2]
  IC50: 0.2 µM
[3]
  IC50: 2.2 µM

## COc1ccc(OC)c(CN2CCc3nc(N)nc(N)c3C2)c1
[1]
  IC50: 3.3 µM
[2]
  IC50: 0.3 µM
[3]
  IC50: 1.4 µM

## Nc1nc(N)c2c(n1)CCC(Cc1ccc(OC(F)(F)F)cc1)C2 (stereo not given)
[1]
  IC50: 0.58 µM
[2]
  IC50: 0.073 µM
[3]
  IC50: 0.17 µM

## Nc1nc(N)c2c(n1)CCC(Cc1cccs1)C2 (stereo not given)
[1]
  IC50: 0.21 µM
[2]
  IC50: 0.062 µM
[3]
  IC50: 0.08 µM

## Nc1nc(N)c2c(n1)CCC(Cc1ccsc1)C2 (stereo not given)
[1]
  IC50: 1.7 µM
[2]
  IC50: 0.049 µM
[3]
  IC50: 0.13 µM

## COc1ccc(CC2CCc3nc(N)nc(N)c3C2)cc1OC (stereo not given)
[5]
  IC50: 0.3 µM
[6]
  IC50: 1.3 µM
[7]
  IC50: 12 µM
[8]
  IC50: 0.04 µM
[9]
  IC50: 24 µM
[1]
  IC50: 0.1 µM
[10]
  IC50: 0.04 µM
[11]
  IC50: 0.27 µM
[2]
  IC50: 0.023 µM
[12]
  IC50: 15 µM
[13]
  IC50: 5.7 µM
[14]
  IC50: 0.06 µM
[15]
  IC50: 23 µM
[16]
  IC50: 0.99 µM
[17]
  IC50: 0.051 µM
[18]
  IC50: 3.8 µM
[19]
  IC50: 21 µM
[20]
  IC50: 0.07 µM
[21]
  IC50: 19 µM
[22]
  IC50: 0.24 µM
[23]
  IC50: 0.13 µM
[3]
  IC50: 0.063 µM
[24]
  Ratio: 3.5
[4]
  IC50: 0.081 µM
[25]
  IC50: 0.06 µM
[26]
  IC50: 0.072 µM
[27]
  IC50: 0.25 µM

## Nc1nc(N)c2c(n1)CCC(Cc1cccc(OC(F)(F)F)c1)C2 (stereo not given)
[1]
  IC50: 0.1 µM
[2]
  IC50: 0.014 µM
[3]
  IC50: 0.079 µM
[24]
  Ratio: 9.3
[4]
  IC50: 0.13 µM

## CCC1CCc2nc(N)nc(N)c2C1 (stereo not given)
[1]
  IC50: 6.9 µM
[2]
  IC50: 1.1 µM
[3]
  IC50: 3 µM

## Nc1nc(N)c2c(n1)CCC(c1ccccc1)C2 (stereo not given)
[1]
  IC50: 2.2 µM
[2]
  IC50: 1.3 µM
[3]
  IC50: 1.9 µM

## Cc1cccc(CC2CCc3nc(N)nc(N)c3C2)c1 (stereo not given)
[1]
  IC50: 0.34 µM
[2]
  IC50: 0.036 µM
[3]
  IC50: 0.11 µM

## COc1cc(CC2CCc3nc(N)nc(N)c3C2)cc(OC)c1OC (stereo not given)
[5]
  IC50: 0.19 µM
[6]
  IC50: 1.3 µM
[8]
  IC50: 0.06 µM
[9]
  IC50: 21 µM
[1]
  IC50: 0.091 µM
[28]
  IC50: 0.08 µM
[10]
  IC50: 0.05 µM
[29]
  IC50: 9.8 µM
[11]
  IC50: 11 µM
[2]
  IC50: 0.024 µM
[12]
  IC50: 27 µM
[13]
  IC50: 0.71 µM
[14]
  IC50: 0.06 µM
[15]
  IC50: 36 µM
[18]
  IC50: 1.6 µM
[20]
  IC50: 0.08 µM
[21]
  IC50: 22 µM
[22]
  IC50: 0.27 µM
[23]
  IC50: 0.19 µM
[30]
  IC50: 1 µM
[3]
  IC50: 0.038 µM
[24]
  Ratio: 8.8
[4]
  IC50: 0.21 µM
[25]
  IC50: 0.78 µM
[26]
  IC50: 0.19 µM
[27]
  IC50: 0.25 µM

## COc1ccccc1CC1CCc2nc(N)nc(N)c2C1 (stereo not given)
[1]
  IC50: 0.45 µM
[2]
  IC50: 0.014 µM
[3]
  IC50: 0.12 µM

## COc1cccc(CC2CCc3nc(N)nc(N)c3C2)c1 (stereo not given)
[1]
  IC50: 0.27 µM
[2]
  IC50: 0.021 µM
[3]
  IC50: 0.11 µM

## Nc1nc(N)c2c(n1)CCC(Cc1ccccc1)C2 (stereo not given)
[1]
  IC50: 0.29 µM
[2]
  IC50: 0.032 µM
[3]
  IC50: 0.18 µM
[24]
  Ratio: 7.8
[4]
  IC50: 0.25 µM

## COc1ccc(OC)c(CC2CCc3nc(N)nc(N)c3C2)c1 (stereo not given)
[6]
  IC50: 2.7 µM
[7]
  IC50: 31 µM
[8]
  IC50: < 0.01 µM
[9]
  IC50: 10 µM
[1]
  IC50: 0.057 µM
[10]
  IC50: < 0.01 µM
[29]
  IC50: 15 µM
[11]
  IC50: 0.33 µM
[2]
  IC50: 0.021 µM
[12]
  IC50: 8.4 µM
[13]
  IC50: 16 µM
[14]
  IC50: 0.06 µM
[15]
  IC50: 15 µM
[16]
  IC50: 0.32 µM
[17]
  IC50: < 0.01 µM
[18]
  IC50: 10 µM
[19]
  IC50: 21 µM
[20]
  IC50: 0.06 µM
[21]
  IC50: 20 µM
[30]
  IC50: 0.43 µM
[3]
  IC50: 0.034 µM
[25]
  IC50: < 0.01 µM
[26]
  IC50: 0.035 µM

## Nc1nc(N)c2c(n1)CCC(Cc1cccc(C(F)(F)F)c1)C2 (stereo not given)
[1]
  IC50: 0.4 µM
[2]
  IC50: 0.14 µM
[3]
  IC50: 0.19 µM

Source: ChEMBL document CHEMBL1132605 (J Med Chem, 1999)
